Among the data in patent publication US11773132B2, “Cyclic di-nucleotides as stimulator of interferon genes modulators” (Beijing Xuanyi PharmaSciences Co., Ltd., priority 2017, dated 2023) are EC50 values, retold here.

Format in all cases: cell-based
The target in assay [1] is T1, Human STING (Homo sapiens, UniProt Q86WV6, G230A/H232R/R293Q/R71H).
T1 construct: host or cells: THP1-Dual cells (human monocytic reporter line)
The assay is described as follows: EC50 in THP1-Dual cells, IRF3 reporter (QUANTI-Luc). As to conditions: THP1 cell line, 24 h. On the procedure: (§1) THP1-Dual cells (obtained from Invivogen) are maintained in RPM11640 medium with 100 µg/ml of Zeocin and 10 µg/ml of blasticidin at 37° C., 5% CO2, compounds were dissolved in sterile PBS (pH7.4) as 20 mM, 0.5×10^6 cells/ml of THP-1 Dual cells were incubated with indicated concentrations of a compound for 24 hours at 37° C., 5% CO2 incubator. QUANTI-Luc and QUANTI-Blue were prepared and used following the manufacturer's instructions. 10 ul of cell culture supernatant were mixed with QUANTI-Luc and immediately measured using Luminometer; 20 ul of supernatant were mixed with QUANTI-Blue, and incubated at 37° C. for 30 minutes, and read at OD620. EC50 was calculated using Prism with 4-parameter dose-response curve fitting (Table 3).

For assay [2], the target named is T1, Human STING. Briefly: EC50 in THP1-Dual cells, NF-kB reporter (QUANTI-Blue). The settings on record: THP1 cell line, 24 h, OD620, read-out: ECs50 NF-kB. On the procedure:
as §1

In assay [3] the target is T2, hSTING R232 (Homo sapiens, UniProt Q86WV6, H232R).
T2 construct: host or cells: 293T-Dual hSTING R232 cells
T2 sequence (Q86WV6 whole entry H232R): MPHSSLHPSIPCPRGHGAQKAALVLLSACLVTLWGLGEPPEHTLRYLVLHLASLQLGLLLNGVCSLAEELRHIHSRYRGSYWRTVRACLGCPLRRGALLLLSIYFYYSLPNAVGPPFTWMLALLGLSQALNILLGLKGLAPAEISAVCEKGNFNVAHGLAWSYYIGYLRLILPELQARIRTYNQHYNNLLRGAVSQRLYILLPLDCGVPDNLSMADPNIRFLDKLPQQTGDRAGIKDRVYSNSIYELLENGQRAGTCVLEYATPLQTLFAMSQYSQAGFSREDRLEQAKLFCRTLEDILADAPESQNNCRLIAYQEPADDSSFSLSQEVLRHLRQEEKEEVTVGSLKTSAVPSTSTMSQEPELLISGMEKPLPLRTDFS
The assay is described as follows: 293T-Dual hSTING R232 cells, IRF activation (Quanti-Blue). The settings on record: 293T-Dual hSTING R232 cell line, 24 h, OD 620 nm. On the procedure: (§2) A test compound with a serial of dilution was prepared in complete medium, and 50 μL of the compound were added to the corresponding well, and incubated with the cells at 37° C. incubator for 24 hr.
To determine the effect on interferon regulatory factor (IRF) activation, 20 μL of cell culture supernatant was transferred into a fresh 96-well plate, 150 μL of Quanti-Blue was added to each well and incubated at 37° C. for 25 min. OD at 620 nm was recorded, and EC50 was calculated with 4 parameter logistic equation.

The target in assay [4] is T2, hSTING R232. The assay is described as follows: 293T-Dual hSTING R232 cells, interferon-β expression (Quanti-Luc). The settings on record: 293T-Dual hSTING R232 cell line, 24 h, read-out: IFNb EC50. On the procedure: as §2
To evaluate the effect on interferon-β expression, 20 μL of cell culture supernatant were transferred into a fresh 96-half area-well white plate, 30 μL of Quanti-Luc were added to each well, and luminescence was measured immediately with a luminometer. Four parameter logistic equation was used to calculate EC50 (Table 4).

T1 sequence (Q86WV6 whole entry R71H/G230A/H232R/R293Q): as the sequence (Q86WV6 whole entry H232R) above, with R71H, G230A, R293Q counted along it

In the case of `BP1(=O)OC[C@H]2O[C@@H](n3cnc4c(=O)[nH]c(N)nc43)[C@H](F)[C@@H]2OP(=O)(S)OCC2O[C@@H](n3cnc4c(N)ncnc43)[C@H](F)[C@@H]2O1` (single isomer, unassigned) [Compound B1], the EC50 is 28.2 µM in assay [1], over 100 µM in assay [2], 11.8 µM in assay [3] and 37.5 µM in assay [4].

On to `BP1(=O)OC[C@H]2O[C@@H](n3cnc4c(=O)[nH]c(N)nc43)[C@H](F)[C@@H]2OP(=O)(S)OCC2O[C@@H](n3cnc4c(N)ncnc43)[C@H](F)[C@@H]2O1` (single isomer, unassigned) [Compound B2], for which the EC50 was 14.7 µM in assay [1], 74.6 µM in assay [2], 9.82 µM in assay [3] and 29.1 µM in assay [4].

For `BP1(=O)OC[C@H]2O[C@@H](n3cnc4c(=O)[nH]c(N)nc43)[C@H](F)[C@@H]2OP(=O)(S)OCC2O[C@@H](n3cnc4c(N)ncnc43)[C@H](F)[C@@H]2O1` (single isomer, unassigned) [Compound B3], the EC50 in assay [1] was 0.91 µM; in assay [2], 5.22 µM; in assay [3], 0.32 µM; in assay [4] it was 2.97 µM.

Regarding `BP1(=O)OC[C@H]2O[C@@H](n3cnc4c(=O)[nH]c(N)nc43)[C@H](F)[C@@H]2OP(=O)(S)OCC2O[C@@H](n3cnc4c(N)ncnc43)[C@H](F)[C@@H]2O1` (single isomer, unassigned) [Compound B4], the EC50 is 0.61 µM in assay [1], 7.61 µM in assay [2], 0.34 µM in assay [3] and 2.27 µM in assay [4].

For the compound `BP1(=O)OCC2O[C@@H](n3cnc4c(N)ncnc43)[C@H](F)[C@@H]2OP(=O)(S)OC[C@H]2O[C@@H](n3cnc4c(=O)[nH]c(N)nc43)[C@H](F)[C@@H]2O1` (single isomer, unassigned) [Compound C1], the EC50 came out at 88.4 µM in assay [1], 67.1 µM in assay [2], 34.3 µM in assay [3] and 75 µM in assay [4].

With `BP1(=O)OCC2O[C@@H](n3cnc4c(N)ncnc43)[C@H](F)[C@@H]2OP(=O)(S)OC[C@H]2O[C@@H](n3cnc4c(=O)[nH]c(N)nc43)[C@H](F)[C@@H]2O1` (single isomer, unassigned) [Compound C2], the EC50 in assay [1] was 0.43 µM; in assay [2] it was 4.93 µM; in assay [3], 0.23 µM; in assay [4], 0.43 µM.

As for `BP1(=O)OCC2O[C@@H](n3cnc4c(N)ncnc43)[C@H](F)[C@@H]2OP(=O)(S)OC[C@H]2O[C@@H](n3cnc4c(=O)[nH]c(N)nc43)[C@H](F)[C@@H]2O1` (single isomer, unassigned) [Compound C3], the EC50 in assay [1] was determined as 0.37 µM; in assay [2], 4.56 µM; in assay [3], 0.085 µM; in assay [4], 0.16 µM.

Regarding `BP1(=O)OCC2O[C@@H](n3cnc4c(N)ncnc43)[C@H](F)[C@@H]2OP(=O)(S)OC[C@H]2O[C@@H](n3cnc4c(=O)[nH]c(N)nc43)[C@H](F)[C@@H]2O1` (single isomer, unassigned) [Compound C4], the EC50 was determined as 0.63 µM in assay [1], 6.29 µM in assay [2], 0.34 µM in assay [3] and 0.7 µM in assay [4].

Consider `[BH3-][P+]1(O)OCC2OC(n3cnc4c(N)ncnc43)C(OP(=O)(O)OCC3OC(n4cnc5c(N)ncnc54)C(F)C3O1)C2F` (single isomer, unassigned) [Compound K1], for which the EC50 came out at 0.91 µM in assay [1], 7.47 µM in assay [2], 0.72 µM in assay [3] and 2.3 µM in assay [4].

Turning to `[BH3-][P+]1(O)OCC2OC(n3cnc4c(N)ncnc43)C(OP(=O)(O)OCC3OC(n4cnc5c(N)ncnc54)C(F)C3O1)C2F` (single isomer, unassigned) [Compound K2], the EC50 was determined as 23 µM in assay [1], 72.6 µM in assay [2], 15 µM in assay [3] and 33 µM in assay [4].

`BP1(=O)OCC2O[C@@H](n3cnc4c(N)ncnc43)[C@H](F)[C@@H]2OP(=O)(O)OC[C@H]2O[C@@H](n3cnc4c(=O)[nH]c(N)nc43)[C@H](F)[C@@H]2O1` (stereo partly drawn) [Compound F1, ((2R,3R,3aR,5R,7aS,9R,10R,10aR,14aR)-2-(2-amino-6-oxo-1,6-dihydro-9H-purin-9-yl)-9-(6-amino-9H-purin-9-yl)-3,10-difluoro-12-hydroxy-5,12-dioxidooctahydro-2H,7H-difuro[3,2-d:3′,2′-j][1,3,7,9]tetraoxa[2,8]diphosphacyclododecin-5-yl)trihydroborate]: the EC50 in assay [1] was 1.16 µM; in assay [2], 6.59 µM; in assay [3], 0.63 µM; in assay [4] it was 2.44 µM.

Consider `BP1(=O)OCC2O[C@@H](n3cnc4c(N)ncnc43)[C@H](F)[C@@H]2OP(=O)(O)OC[C@H]2O[C@@H](n3cnc4c(=O)[nH]c(N)nc43)[C@H](F)[C@@H]2O1` (stereo partly drawn) [Compound F2, ((2R,3R,3aR,5R,7aS,9R,10R,10aR,14aR)-2-(2-amino-6-oxo-1,6-dihydro-9H-purin-9-yl)-9-(6-amino-9H-purin-9-yl)-3,10-difluoro-12-hydroxy-5,12-dioxidooctahydro-2H,7H-difuro[3,2-d:3′,2′-j][1,3,7,9]tetraoxa[2,8]diphosphacyclododecin-5-yl)trihydroborate], for which the EC50 is 1.56 µM in assay [1], 10 µM in assay [2], 1.2 µM in assay [3] and 2.78 µM in assay [4].

For `BP1(=O)OC[C@H]2O[C@@H](n3cnc4c(=O)[nH]c(N)nc43)[C@H](F)[C@@H]2OP(=O)(O)OCC2O[C@@H](n3cnc4c(N)ncnc43)[C@H](F)[C@@H]2O1` (stereo partly drawn) [Compound G1, ((2R,3R,3aR,5R,7aR,9R,10R,10aR,14aS)-9-(2-amino-6-oxo-1,6-dihydro-9H-purin-9-yl)-2-(6-amino-9H-purin-9-yl)-3,10-difluoro-12-hydroxy-5,12-dioxidooctahydro-2H,7H-difuro[3,2-d:3′,2′-j][1,3,7,9]tetraoxa[2,8]diphosphacyclododecin-5-yl)trihydroborate], the EC50 in assay [1] amounted to 0.63 µM; in assay [2], 4.3 µM; in assay [3], 0.41 µM; in assay [4], 0.92 µM.

With `BP1(=O)OC[C@H]2O[C@@H](n3cnc4c(=O)[nH]c(N)nc43)[C@H](F)[C@@H]2OP(=O)(O)OCC2O[C@@H](n3cnc4c(N)ncnc43)[C@H](F)[C@@H]2O1` (stereo partly drawn) [Compound G2, ((2R,3R,3aR,5R,7aR,9R,10R,10aR,14aS)-9-(2-amino-6-oxo-1,6-dihydro-9H-purin-9-yl)-2-(6-amino-9H-purin-9-yl)-3,10-difluoro-12-hydroxy-5,12-dioxidooctahydro-2H,7H-difuro[3,2-d:3′,2′-j][1,3,7,9]tetraoxa[2,8]diphosphacyclododecin-5-yl)trihydroborate], the EC50 in assay [1] is 1.08 µM; in assay [2] it was 8.52 µM; in assay [3], 0.94 µM; in assay [4], 1.77 µM.

On to `B[P@]1(=O)OC[C@H]2O[C@@H](n3cnc4c(N)ncnc43)[C@H](F)[C@@H]2OP(=O)(O)OC[C@H]2O[C@@H](n3cnc4c(N)ncnc43)[C@H](O1)C2F` (some centres unmarked) [Compound I1], for which the EC50 in assay [1] was determined as 13.9 µM; in assay [2] it was 29 µM; in assay [3], 9.68 µM; in assay [4], 12.8 µM.

As for `B[P@]1(=O)OC[C@H]2O[C@@H](n3cnc4c(N)ncnc43)[C@H](F)[C@@H]2OP(=O)(O)OC[C@H]2O[C@@H](n3cnc4c(N)ncnc43)[C@H](O1)C2F` (some centres unmarked) [Compound I2], the EC50 in assay [1] came out at 6.27 µM; in assay [2], 34.7 µM; in assay [3] it was 5.43 µM; in assay [4] it was 11.2 µM.

As for `BP1(=O)OC[C@H]2O[C@@H](n3cnc4c(N)ncnc43)[C@H](F)[C@@H]2OP(=O)(S)OC[C@H]2O[C@@H](n3cnc4c(N)ncnc43)[C@H](O1)C2F` (some centres unmarked) [Mixtures of H1, H2, H3, and H4], the EC50 was over 100 µM in assay [1], over 100 µM in assay [2], 33.6 µM in assay [3] and 84.4 µM in assay [4].
